Literature values as cited in patent US8518371B2, “Hypoxia-selective, weakly basic 2-nitroimidazole delivery agents and methods of use thereof” (Natural Pharmacia International, Inc., priority 2006, dated 2013).

Key:
[1] = in vivo
animal models = settings: in vivo
[2] = escalating, rarely to

retention times in tissues [1]	Compound	selectivity for tumor cells (tumor cells)	safety and efficacy in animal models (animal models)	MTD [2] [mg/m^2]
low	N[C@@H](Cc1ccc(B(O)O)cc1)C(=O)O [BPA, L-4-dihydroxy-borylphenylalanine]	moderate	safe and efficacious	–
–	CC[C@]1(O)C[C@@H]2CN(CCc3c([nH]c4ccccc34)[C@@](C(=O)OC)(c3cc4c(cc3OC)N(C)[C@H]3[C@@](O)(C(=O)OC)[C@H](OC(C)=O)[C@]5(CC)C=CCN6CC[C@]43[C@@H]65)C2)C1 [vinblastine]	–	–	≤ 18.5
low	disodium mercapto-closo-dodecaborate [BSH]	moderate	safe and efficacious	–
